The values below are quoted from earlier work in US10206949B2, “Composition that relieves heartburn, GERD and hangovers” (priority 2015, dated 2019).

The mark [1] stands for this setting: patients with acute renal or cardiac failure.

On to `CNC(=C[N+](=O)[O-])NCCSCc1ccc(CN(C)C)o1` [ranitidine, N-(2-[(5-[(dimethylamino)methyl]furan-2-yl)methylthio]ethyl)-N′-methyl-2-nitroethene-1,1-diamine], for which the “false positives for methamphetamine on drug tests” value (in vivo) is reported as “known to give false positives”. Besides, the fungal sepsis result (patients on ranitidine) is recorded as “observed in some patients”. Besides, under setting [1], the mucosal perfusion result is reported as “decrease mucosal perfusion” and the risk of death result was “increases their risk of death”.
